# Data from patent US20240238417A1, “METHODS OF PRODUCING TUMOR VACCINES AND USES THEREOF” (priority 2021, published 2024).
# Legend:
# Panc02.03 cells = assay: XTT viability of Panc02.03 cells after gas exposure in chamber; assay type: cell-based; conditions: 10,000 ppm-25,000 ppm gNO for 1-15 minutes
# Text: (§1) Tumor celllines: The mouse colon carcinoma cell line, CT26WT, was cloned from CT26, an N-nitroso-N-methylurethane-induced, undifferentiated colon carcinoma cell line. The mouse mammary tumor cell line, 4T1, is a 6-thioguanine resistant cell line. When injected into BALB/c mice, 4T1 spontaneously produces highly metastatic tumors that can metastasize to the lung, liver, lymph nodes and brain while the primary tumor is growing in situ. […] Panc 02.03 is a pancreatic adenocarcinoma epithelial cell line derived in 1995 from a primary tumor removed from the head-of-the-pancreas of […] with pancreatic adenocarcinoma. CT26, 4T1 and Panc 02.03 cell lines were grown in RPMI based media (ATCC 30-2001) supplemented with fetal bovine serum and pen-strep (both from Biological Industries). The LLC1/LU2 cell line was grown in DMEM based media (ATCC 30-2002) supplemented with fetal bovine serum and pen-strep (Biological industries). The B16.F10 cell lines was grown in DMEM based media (ATCC 30-2002) supplemented with fetal bovine serum and pen-strep (Biologicalindustries).
# (§2) In vitro systems: One system involves a direct exposure of cancer cells to gNO in 96-well plate. Gaseous NO at 150 ppm-50,000 ppm was delivered at 0.3 LPM for 10 seconds—3 minutes. In another system, cancer cells were exposed to gNO in a box made of acrylic glass. […]
# LLC1 challenge tumor = assay: Challenge assay in LLC1 tumor-bearing mice; assay type: in vivo; conditions: 50,000 ppm NO intra-tumorally for 10 minutes; 9 days post challenge tumor inoculation
# Protocol: (§3) Challenge tumor inoculation: Up to 21 days after gas treatment was applied to the primary tumor, the appropriate cancer cell suspensions were prepared as described herein and inoculation of cells was repeated on the contralateral flank of the mice. Administration was performed as soon as possible following cell suspension preparation and after manual shaking prior to withdrawal of the cell suspension.
# (§4) The percentage of challenge tumor take was monitored 2-3 times a week by taking a look at the inoculated site and touching this area to look for small tumors that are not yet visible. Naïve mice inoculated with tumor cells for the first time served as an internal control.
# gNO local administration was tested in a Challenge assay, as depicted in FIG. 15A, in order to evaluate whether treating the primary tumor by gNO based ablation stimulates an anti-tumor immune response that results in rejection of a secondary tumor inoculation. A secondary, “challenge”, tumor cells inoculation also serves as a metastasis model.
# LLC1 tumor-bearing mice were treated with 50,000 ppm NO administered intra-tumorally by a 23G hypodermic needle for 10 minutes. Up to 2 weeks post the first gas treatment all gas-treated mice were re-inoculated with 2.5×10^5 LLC1 cells suspended in 100 μL HBSS into the left flank. Naïve mice inoculated with 5×10^5 CT-26 cells served as an internal control for cells' quality.
# CT26 challenge tumor = assay: Challenge assay in CT26 tumor-bearing mice; assay type: in vivo
# Protocol: as §3, §4
# In another challenge assay, the tumors of CT26 tumor-bearing mice were treated with 25,000-200,000 ppm gNO delivered into the tumors using 23G hypodermic needles, as depicted in FIG. 17A.
# CT26 tumor-bearing mice treated with 25,000 ppm for 30 minutes, were re-inoculated with CT26 tumor cells 12 days after treatment (n=1) and 14 days after treatment (n=1). The percentage of visible challenge tumor take was assessed 2-3 times a week for more than 50 days.
# An additional group of CT26 tumor-bearing mice were treated with 50,000 ppm for 10 minutes, and were re-inoculated with CT26 tumor cells 7 days (n=1) or 9 days (n=1) after treatment. The percentage of challenge tumor take was assessed 2-3 times a week for 12 days.
# An additional group of CT26 tumor-bearing mice were treated with 200,000 ppm for 2-35 seconds, were re-inoculated with CT26 tumor cells 14 days (n=2) post treatment. The percentage of visible challenge tumor take was assessed 2-3 times a week for more than 50 days.
# Naïve mice, inoculated with CT26 for the first time, served as the control group.
# The effect of high-pressure gas treatment on stimulation of anti-tumor immune response was tested in a challenge assay as depicted in FIG. 37A.
# Balb/c mice were inoculated subcutaneously (s.c) with the mouse colon cancer cell line, CT26. […]
# 4T1 cells = assay: XTT viability of 4T1 cells after direct gas exposure in 96-well plate; assay type: cell-based, mouse
# Text: as §1
# In vitro systems: One system involves a direct exposure of cancer cells to gNO in 96-well plate. Gaseous NO at 150 ppm-50,000 ppm was delivered at 0.3 LPM for 10 seconds—3 minutes. In another system, cancer cells were exposed to gNO in a box made of acrylic glass. Gaseous NO at 10,000-50,000 ppm was delivered at 0.9 LPM for 10 seconds—15 minutes.
# The exposure of the cancer cells to gNO was done after removing the cell culture medium.
# Immediately after gas exposure, cell culture medium was added, and the cells were incubated at a 37° C. and 5% CO2 incubator over-night. To test cell viability, XTT assay and Annexin V-Propidium Iodide assays were performed, according to known protocols.
# The effect of continuous gaseous nitric oxide (gNO) at 150 ppm, 4,000 ppm, 10,000 ppm, or 50,000 ppm, compared to air (control), on the survival of 4T1 cancer cell line was tested. 4T1 cells were prepared in RPMI medium and suspended in six 96-well plates. […]
# CT-26 cells = assay: XTT viability of CT-26 cells after direct gas exposure in 96-well plate; assay type: cell-based; conditions: Mus musculus, CT26; 50,000 ppm gNO for 10, 60, or 180 seconds; XTT after 24 hours
# Text: as §1, §2
structure (smiles),measurement,setting,value
"[N]=O [gNO, nitric oxide]",viability of Panc02.03 cells,Panc02.03 cells,less than 5%
same,development of a secondary (challenge) LLC1 tumor,LLC1 challenge tumor,none of the gas-treated mice developed a secondary tumor
same,secondary CT26 tumor cell inoculation at end of follow-up,"CT26 challenge tumor; 25,000 ppm 30 minutes, 50,000 ppm 10 minutes or 200,000 ppm 2-35 seconds, naive mice 100% tumor take",all NO-treated mice rejected a secondary CT26 tumor cell inoculation
same,"tumor-free mice, no primary and challenge tumors","CT26 challenge tumor; 25,000 ppm gNO, 0.25 LPM, two 15-minute cycles, outlet pressure 3.5-5.17 bars",50%
same,development of a secondary (challenge) CT26 tumor,"CT26 challenge tumor; 25,000 ppm gNO, 0.25 LPM, two 15-minute cycles, outlet pressure 3.5-5.17 bars, re-inoculated days 12-14",have not developed a secondary tumor
same,4T1 cells remain viable,"4T1 cells; 4,000-10,000 ppm gNO for 1 minute",About 60%
same,viability of 4T1 cells,"4T1 cells; 10,000 or 50,000 ppm gNO for 180 seconds",1-3%
same,4T1 cells remained viable,"4T1 cells; 10,000 ppm or 50,000 ppm gNO for 10 seconds",less than 80%
same,viability at 50000 ppm,CT-26 cells,~1%
